Key:
[1] = tested on: wheat; experiment: Test A pre-/postemergence herbicide test; format: in vivo, Triticum aestivum
In short: (§1)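 Both application timings used compounds in a non-phytotoxic solvent plus surfactant. Pre-emergence: soil sprayed directly after seeding into loam/sand. Post-emergence: foliage of 2–10 cm seedlings (1–2 leaves) sprayed. Injury rated ~10 days later, 0–100.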

[2] = tested on: giant foxtail; experiment: Test A pre-/postemergence herbicide test; format: in vivo, Setaria faberii
In short: as §1

[3] = tested on: pigweed; experiment: Test A pre-/postemergence herbicide test; format: in vivo, Amaranthus retroflexus
In short: as §1

[4] = tested on: barnyardgrass; experiment: Test B flooded paddy test; format: in vivo, Echinochloa crus-galli; settings: 1000 g ai/ha, Flood; scale of 0 to 100 where 0 is no effect and 100 is complete control
In short: (§2)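 Plants were grown to the 2-leaf stage, then pots were flooded to 3 cm above the soil and compound was applied directly into the paddy water, with that depth held throughout. After 13 to 15 days in a greenhouse, injury was rated visually against untreated controls on a 0 to 100 scale (100 = complete control).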

[5] = tested on: morningglory; experiment: Test A pre-/postemergence herbicide test; format: in vivo, Ipomoea spp.
In short: as §1

[6] = tested on: velvetleaf; experiment: Test A pre-/postemergence herbicide test; format: in vivo, Abutilon theophrasti
In short: as §1

[7] = tested on: crabgrass, large; experiment: Test A pre-/postemergence herbicide test; format: in vivo, Digitaria sanguinalis
In short: as §1

[8] = tested on: ducksalad; experiment: Test B flooded paddy test; format: in vivo, Heteranthera limosa; settings: 1000 g ai/ha, Flood; scale of 0 to 100 where 0 is no effect and 100 is complete control
In short: as §2

[9] = tested on: barnyardgrass; experiment: Test A pre-/postemergence herbicide test; format: in vivo, Echinochloa crus-galli
In short: as §1

[10] = tested on: corn; experiment: Test A pre-/postemergence herbicide test; format: in vivo, Zea mays
In short: as §1

[11] = tested on: sedge, umbrella; experiment: Test B flooded paddy test; format: in vivo, Cyperus difformis; settings: 1000 g ai/ha, Flood; scale of 0 to 100 where 0 is no effect and 100 is complete control
In short: as §2

[12] = tested on: rice; experiment: Test B flooded paddy test; format: in vivo, Oryza sativa; settings: 1000 g ai/ha, Flood; scale of 0 to 100 where 0 is no effect and 100 is complete control
In short: as §2

[13] = Postemergence, 125 g ai/ha, visual rating on 0 to 100 scale (0 no effect, 100 complete control), approx. 10 days
[14] = Postemergence, 500 g ai/ha, 0 to 100 scale (0 no effect, 100 complete control)
[15] = Preemergence, 125 g ai/ha, 0 to 100 scale where 0 is no effect and 100 is complete control
[16] = preemergence, 500 g ai/ha, 0 to 100 scale, 0 is no effect and 100 is complete control
[17] = Postemergence, 125 g ai/ha, 0 to 100 scale, 0 is no effect, 100 is complete control

O=C1NCC(c2ccc(Cl)c(C(F)(F)F)c2)C1C(=O)Nc1cccc(F)c1F (racemic) [Compound 268]
40: Plant response rating, Corn [10, 14]
90: Plant response rating, Foxtail, Giant [2, 14] | Plant response rating, Crabgrass, Large [7, 16]
0: Plant response rating, Wheat [1, 13] | Plant response rating, Wheat [1, 14] | Plant response rating, Wheat [1, 15] | Plant response rating, Wheat [1, 16] | Plant response rating, Barnyardgrass [4] | Plant response rating, Morningglory [5, 14] | Plant response rating, Morningglory [5, 15] | Plant response rating, Velvetleaf [6, 15] | Plant response rating, Velvetleaf [6, 16] | Plant response rating, Corn [10, 17] | Plant response rating, Corn [10, 15] | Plant response rating, Sedge, Umbrella [11]
70: Plant response rating, Foxtail, Giant [2, 15] | Plant response rating, Crabgrass, Large [7, 17] | Plant response rating, Barnyardgrass [9, 14] | Plant response rating, Barnyardgrass [9, 15]
50: Plant response rating, Pigweed [3, 13] | Plant response rating, Barnyardgrass [9, 17]
60: Plant response rating, Pigweed [3, 16] | Plant response rating, Morningglory [5, 16]
20: Plant response rating, Morningglory [5, 13] | Plant response rating, Rice [12]
80: Plant response rating, Foxtail, Giant [2, 17] | Plant response rating, Foxtail, Giant [2, 16] | Plant response rating, Pigweed [3, 14] | Plant response rating, Crabgrass, Large [7, 14] | Plant response rating, Crabgrass, Large [7, 15] | Plant response rating, Barnyardgrass [9, 16] | Plant response rating, Corn [10, 16]
100: Plant response rating, Ducksalad [8]
30: Plant response rating, Pigweed [3, 15]

O=C1NCC(c2ccc(Cl)c(C(F)(F)F)c2)C1C(=O)Nc1ccccc1C(F)(F)F (racemic) [Compound 269]
90: Plant response rating, Crabgrass, Large [7, 16]
0: Plant response rating, Wheat [1, 13] | Plant response rating, Wheat [1, 14] | Plant response rating, Wheat [1, 15] | Plant response rating, Wheat [1, 16] | Plant response rating, Barnyardgrass [4] | Plant response rating, Morningglory [5, 13] | Plant response rating, Morningglory [5, 14] | Plant response rating, Morningglory [5, 15] | Plant response rating, Morningglory [5, 16] | Plant response rating, Velvetleaf [6, 15] | Plant response rating, Velvetleaf [6, 16] | Plant response rating, Corn [10, 17] | Plant response rating, Corn [10, 15] | Plant response rating, Corn [10, 16] | Plant response rating, Sedge, Umbrella [11] | Plant response rating, Rice [12]
70: Plant response rating, Foxtail, Giant [2, 17] | Plant response rating, Pigweed [3, 13] | Plant response rating, Pigweed [3, 16] | Plant response rating, Barnyardgrass [9, 14] | Plant response rating, Barnyardgrass [9, 15]
20: Plant response rating, Corn [10, 14]
50: Plant response rating, Pigweed [3, 15] | Plant response rating, Barnyardgrass [9, 17]
80: Plant response rating, Foxtail, Giant [2, 14] | Plant response rating, Foxtail, Giant [2, 15] | Plant response rating, Foxtail, Giant [2, 16] | Plant response rating, Crabgrass, Large [7, 14] | Plant response rating, Crabgrass, Large [7, 15] | Plant response rating, Barnyardgrass [9, 16]
60: Plant response rating, Pigweed [3, 14] | Plant response rating, Crabgrass, Large [7, 17]
100: Plant response rating, Ducksalad [8]

From patent US10294202B2, “Pyrrolidinones as herbicides” (FMC Corporation, priority 2013, dated 2019)
